Assay results reported in US12281122B1, “PI3K inhibitors” (Cogent Biosciences, Inc., priority 2023, dated 2025).
pIC50: −log10 of the molar value.

How the values were obtained:
[1] = system: SKBR3 (PI3Kα-Wild Type) cell line; assay: HTRF phospho-AKT(S473) cell assay in SKBR3 cells; type: cell-based, human
Outline: (§1)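 Cells plated overnight (T47D in RPMI/10% FBS/0.2 units/mL insulin; SKBR3 in McCoy's 5A/10% FBS), then given 12-point 1:3 compound series (top 5 μM T47D, 10 μM SKBR3; ≤0.5% DMSO) for 2 h at 37° C. SKBR3 stimulated with 70 ng/ml PDGF-BB for final 15 min. Lysate pAKT(S473) by HTRF; IC50 calculated.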

[2] = system: T47D (PI3Kα-H1047R) cell line; assay: HTRF phospho-AKT(S473) cell assay in T47D cells; type: cell-based, human
Outline: as §1

[3] = Homo sapiens, SK-BR-3; HTRF phospho-AKT(S473), SKBR3 (PI3Kα-Wild Type) cells, 2 hours compound incubation, PDGF-BB stimulated
[4] = Homo sapiens; HTRF phospho-AKT(S473), T47D (PI3Kα-H1047R) cells, 2 hours compound incubation
[5] = Homo sapiens, SK-BR-3; SKBR3 (PI3Kα-Wild Type) cells, HTRF phospho-AKT(S473), 2 hours compound incubation, PDGF-BB stimulated
[6] = Homo sapiens; T47D (PI3Kα-H1047R) cells, HTRF phospho-AKT(S473), 2 hours compound incubation

| Compound | pIC50 [1, 3] | pIC50 [2, 4] | pIC50 [1, 5] | pIC50 [2, 6] |
| --- | --- | --- | --- | --- |
| Cc1cc([C@@H](C)Nc2ccc(Cl)nc2C(=O)NS(C)(=O)=O)c2nc(-c3cc4cn(C)nc4cn3)n(C)c(=O)c2c1 [Compound 839, (R)-6-chloro-3-((1-(3,6-dimethyl-2-(2-methyl-2H-pyrazolo[3,4-c]pyridin-5-yl)-4-oxo-3,4-dihydroquinazolin-8-yl)ethyl)amino)-N-(methylsulfonyl) picolinamide] | 5.30 to 6.00 | 6.30 to 6.60 |  |  |
| Cc1cc([C@@H](C)Nc2ccc(Cl)nc2C(=O)NS(C)(=O)=O)c2nc(N3CCN(c4ccn(C)n4)CC3)n(C)c(=O)c2c1 [Compound 187, (R)-6-chloro-3-((1-(3,6-dimethyl-2-(4-(1-methyl-1H-pyrazol-3-yl)piperazin-1-yl)-4-oxo-3,4-dihydroquinazolin-8-yl)ethyl)amino)-N-(methylsulfonyl) picolinamide] |  |  | 5.30 to 6.00 | > 6.60 |
| Cc1cc([C@@H](C)Nc2ccc(Cl)nc2C(=O)NS(C)(=O)=O)c2nc(N3C[C@@H]4[C@H](C3)[C@H]4c3n[nH]c(C)c3F)n(C)c(=O)c2c1 [Compound 594, 6-chloro-3-(((R)-1-(2-((1R,5S,6R)-6-(4-fluoro-5-methyl-1H-pyrazol-3-yl)-3-azabicyclo[3.1.0]hexan-3-yl)-3,6-dimethyl-4-oxo-3,4-dihydroquinazolin-8-yl)ethyl)amino)-N-(methylsulfonyl) picolinamide] | 5.30 to 6.00 | > 6.60 |  |  |
| Cc1cc([C@@H](C)Nc2ccc(Cl)nc2C(=O)NS(C)(=O)=O)c2nc(N3CCC4(CCN(c5ccn(C)n5)C4)C3)n(C)c(=O)c2c1 (stereo partly drawn) [Compound 371, 6-chloro-3-(((1R)-1-(3,6-dimethyl-2-(7-(1-methyl-1H-pyrazol-3-yl)-2,7-diazaspiro[4.4]nonan-2-yl)-4-oxo-3,4-dihydroquinazolin-8-yl)ethyl)amino)-N-(methylsulfonyl) picolinamide] |  |  | 5.30 to 6.00 | > 6.60 |
| Cc1cc([C@@H](C)Nc2ccc(Cl)nc2C(=O)NS(C)(=O)=O)c2nc(-c3ccc4nn(CC5CC5)cc4c3)n(C)c(=O)c2c1 [Compound 795, (R)-6-chloro-3-((1-(2-(2-(cyclopropylmethyl)-2H-indazol-5-yl)-3,6-dimethyl-4-oxo-3,4-dihydroquinazolin-8-yl)ethyl)amino)-N-(methylsulfonyl) picolinamide] | 5.30 to 6.00 | > 6.60 |  |  |
| Cc1cc([C@@H](C)Nc2ccc(Cl)nc2C(=O)NS(C)(=O)=O)c2nc(-c3ccc4c(c3)CN(C)C4=O)n(C)c(=O)c2c1 [Compound 796, (R)-6-chloro-3-((1-(3,6-dimethyl-2-(2-methyl-1-oxoisoindolin-5-yl)-4-oxo-3,4-dihydroquinazolin-8-yl)ethyl)amino)-N-(methylsulfonyl) picolinamide] | 5.30 to 6.00 | > 6.60 |  |  |
| Cc1cc([C@@H](C)Nc2ccc(Cl)nc2C(=O)NS(=O)(=O)C2COC2)c2nc(N3CCOCC3)n(C)c(=O)c2c1 [Compound 294, (R)-6-chloro-3-((1-(3,6-dimethyl-2-morpholino-4-oxo-3,4-dihydroquinazolin-8-yl)ethyl)amino)-N-(oxetan-3-ylsulfonyl)picolinamide] |  |  | 5.30 to 6.00 | > 6.60 |
| Cc1cc([C@@H](C)Nc2ccc(Cl)nc2C(=O)NS(C)(=O)=O)c2nc([C@@H]3CCCN(c4cc[nH]n4)C3)n(C)c(=O)c2c1 (relative stereo) [Compound 322, 3-(((R)-1-(2-((R*)-1-(1H-pyrazol-3-yl)piperidin-3-yl)-3,6-dimethyl-4-oxo-3,4-dihydroquinazolin-8-yl)ethyl)amino)-6-chloro-N-(methylsulfonyl) picolinamide] |  |  | 5.30 to 6.00 | > 6.60 |

Now from value to compound:

| pIC50 [1, 3] | pIC50 [2, 4] | pIC50 [1, 5] | pIC50 [2, 6] | Compound |
| --- | --- | --- | --- | --- |
| ≤ 5.30 | 6.00 to 6.30 |  |  | Cc1cnc([C@H]2CCCN(c3nc4c([C@@H](C)Nc5ccc(Cl)nc5C(=O)NS(C)(=O)=O)cc(C)cc4c(=O)n3C)C2)nc1 (relative stereo) [Compound 621, 6-chloro-3-(((R)-1-(3,6-dimethyl-2-((R*)-3-(5-methylpyrimidin-2-yl)piperidin-1-yl)-4-oxo-3,4-dihydroquinazolin-8-yl)ethyl)amino)-N-(methylsulfonyl) picolinamide] |
|  |  | 5.30 to 6.00 | > 6.60 | Cc1cc([C@@H](C)Nc2ccc(Cl)nc2C(=O)NS(C)(=O)=O)c2nc(N3C[C@@H]4[C@H](C3)[C@H]4c3cc(C)n(C)n3)n(C)c(=O)c2c1 [Compound 435, 6-chloro-3-(((R)-1-(2-((1R,5S,6R)-6-(1,5-dimethyl-1H-pyrazol-3-yl)-3-azabicyclo[3.1.0]hexan-3-yl)-3,6-dimethyl-4-oxo-3,4-dihydroquinazolin-8-yl)ethyl)amino)-N-(methylsulfonyl) picolinamide] |
|  |  | 5.30 to 6.00 | > 6.60 | Cc1cc([C@@H](C)Nc2ccc(Cl)nc2C(=O)NS(C)(=O)=O)c2nc(N3CCC[C@H](c4cn[nH]c4)C3)n(C)c(=O)c2c1 (mixture of isomers) [Compound 168, 3-(((R)-1-(2-((RS)-3-(1H-pyrazol-4-yl)piperidin-1-yl)-3,6-dimethyl-4-oxo-3,4-dihydroquinazolin-8-yl)ethyl)amino)-6-chloro-N-(methylsulfonyl) picolinamide] |
| 5.30 to 6.00 | > 6.60 |  |  | Cc1cc([C@@H](C)Nc2ccc(Cl)nc2C(=O)NS(C)(=O)=O)c2nc(N3CCC(c4cnn(C)n4)CC3)n(C)c(=O)c2c1 [Compound 489, (R)-6-chloro-3-((1-(3,6-dimethyl-2-(4-(2-methyl-2H-1,2,3-triazol-4-yl)piperidin-1-yl)-4-oxo-3,4-dihydroquinazolin-8-yl)ethyl)amino)-N-(methylsulfonyl) picolinamide] |
|  |  | 5.30 to 6.00 | 6.30 to 6.60 | Cc1cc([C@@H](C)Nc2ccc(Cl)nc2C(=O)NS(C)(=O)=O)c2nc(N3CC[C@H](Oc4ccnnc4)C3)n(C)c(=O)c2c1 [Compound 353, 6-chloro-3-(((R)-1-(3,6-dimethyl-4-oxo-2-((S)-3-(pyridazin-4-yloxy)pyrrolidin-1-yl)-3,4-dihydroquinazolin-8-yl)ethyl)amino)-N-(methylsulfonyl) picolinamide] |
| ≤ 5.30 | 6.00 to 6.30 |  |  | Cc1cc([C@@H](C)Nc2ccc(Cl)nc2C(=O)NS(C)(=O)=O)c2nc(N3C[C@@H]4C[C@H]3CN4c3ncc(Cl)cn3)n(C)c(=O)c2c1 [Compound 667, 6-chloro-3-(((R)-1-(2-((1S,4S)-5-(5-chloropyrimidin-2-yl)-2,5-diazabicyclo [2.2.1]heptan-2-yl)-3,6-dimethyl-4-oxo-3,4-dihydroquinazolin-8-yl)ethyl)amino)-N-(methylsulfonyl) picolinamide] |
|  |  | 5.30 to 6.00 | > 6.60 | Cc1cc([C@@H](C)Nc2ccc(Cl)nc2C(=O)NS(C)(=O)=O)c2nc(N3CCN(c4cnn(C)c4)CC3)n(C)c(=O)c2c1 [Compound 188, (R)-6-chloro-3-((1-(3,6-dimethyl-2-(4-(1-methyl-1H-pyrazol-4-yl)piperazin-1-yl)-4-oxo-3,4-dihydroquinazolin-8-yl)ethyl)amino)-N-(methylsulfonyl) picolinamide] |
|  |  | 5.30 to 6.00 | > 6.60 | Cc1cc([C@@H](C)Nc2ccc(Cl)nc2C(=O)NS(C)(=O)=O)c2nc(N3C[C@@H]4C[C@H]3CN4c3ccn(C)n3)n(C)c(=O)c2c1 [Compound 228, 6-chloro-3-(((R)-1-(3,6-dimethyl-2-((1S,4S)-5-(1-methyl-1H-pyrazol-3-yl)-2,5-diazabicyclo[2.2.1]heptan-2-yl)-4-oxo-3,4-dihydroquinazolin-8-yl)ethyl)amino)-N-(methylsulfonyl) picolinamide] |
